ChEMBL document CHEMBL1201862, “PubChem BioAssay data set” (2004)
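Dose response: 5 concentrations. Exposure: 48 h. Format: 96-well plates. Endpoint: linear interpolation; highest concentration if not reached. GI50: concentration for 50% inhibition of growth.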 Active and inactive are the calls of the source. Cut-off read from the data, not from the text of the source: active = GI50 up to about 1.1 µM and inactive = higher.

Legend:
Assay in all cases: inhibition of tumour cell growth, NCI panel, 48 h
[1] = tested on: MOLT-4
[2] = tested on: HL-60
[3] = tested on: M14
[4] = tested on: Malme-3M
[5] = tested on: ACHN
[6] = tested on: SNB-75
[7] = tested on: NCI-H522
[8] = tested on: NCI-H460
[9] = tested on: HOP-62
[10] = tested on: K562
[11] = tested on: 786-0
[12] = tested on: UO-31
[13] = tested on: SF-539
[14] = tested on: UACC-62
[15] = tested on: IGROV-1
[16] = tested on: SR
[17] = tested on: RXF 393
[18] = tested on: DMS-273
[19] = tested on: HOP-92
[20] = tested on: MCF7

SMILES	GI50 [1]	GI50 [2]	GI50 [3]	GI50 [4]	GI50 [5]	GI50 [6]	GI50 [7]	GI50 [8]	GI50 [9]	GI50 [10]	GI50 [11]	GI50 [12]	GI50 [13]	GI50 [14]	GI50 [15]	GI50 [16]	GI50 [17]	GI50 [18]	GI50 [19]	GI50 [20]
C[N+](C)=c1nc(N2CCc3ccccc3C2)ss1.[O-][Cl+3]([O-])([O-])[O-]	30.7 µM (inactive)	34.2 µM (inactive)	> 100 µM (inactive)	> 100 µM (inactive)	> 100 µM (inactive)	83.6 µM (inactive)	> 100 µM (inactive)	> 100 µM (inactive)	> 100 µM (inactive)	> 100 µM (inactive)	> 100 µM (inactive)	> 100 µM (inactive)	> 100 µM (inactive)	> 100 µM (inactive)	> 100 µM (inactive)	54.5 µM (inactive)	77.4 µM (inactive)	> 100 µM (inactive)		
CC1=C(C#N)C(N)=C2C(C)=C(C#N)C(N)=C12	> 100 µM (inactive)	> 100 µM (inactive)	> 100 µM (inactive)	> 100 µM (inactive)		> 100 µM (inactive)	> 100 µM (inactive)	> 100 µM (inactive)	> 100 µM (inactive)	> 100 µM (inactive)	> 100 µM (inactive)	> 100 µM (inactive)	> 100 µM (inactive)	> 100 µM (inactive)	> 100 µM (inactive)	> 100 µM (inactive)	> 100 µM (inactive)	> 100 µM (inactive)	> 100 µM (inactive)	
CCN(CC)Cc1nc(C2CCC([N+](=O)[O-])O2)no1 (configuration not stated)	53.5 µM (inactive)	16.6 µM (inactive)	14.5 µM (inactive)	15.9 µM (inactive)	98.2 µM (inactive)	16.6 µM (inactive)	15.9 µM (inactive)	20.5 µM (inactive)	35.7 µM (inactive)	36.2 µM (inactive)	40 µM (inactive)	> 100 µM (inactive)	28.2 µM (inactive)	14.8 µM (inactive)	41.5 µM (inactive)	28.2 µM (inactive)	31 µM (inactive)		> 100 µM (inactive)	15.6 µM (inactive)
C=C(C)C1CCC2(C)CC1c1c(c(C)cc3c1[nH]c1ccccc13)O2 (configuration not stated)	17.5 µM (inactive)	11.9 µM (inactive)	> 25 µM (inactive)	> 25 µM (inactive)	> 25 µM (inactive)		15 µM (inactive)	> 25 µM (inactive)	19 µM (inactive)	12 µM (inactive)	> 25 µM (inactive)	12.6 µM (inactive)	> 25 µM (inactive)	> 25 µM (inactive)	> 25 µM (inactive)	> 25 µM (inactive)		> 25 µM (inactive)	> 25 µM (inactive)	
Brc1ccc2c(c1)C1(c3cc(Br)ccc3-2)c2cc(Br)ccc2-c2ccc(Br)cc21	> 100 µM (inactive)	> 100 µM (inactive)	> 100 µM (inactive)	> 100 µM (inactive)	> 100 µM (inactive)		> 100 µM (inactive)	> 100 µM (inactive)	> 100 µM (inactive)	> 100 µM (inactive)	> 100 µM (inactive)	> 100 µM (inactive)	> 100 µM (inactive)	> 100 µM (inactive)	> 100 µM (inactive)	> 100 µM (inactive)	> 100 µM (inactive)	> 100 µM (inactive)		
COc1ccc2[nH]c3c(C)c4ccnc(NCCCN(C)CCCNC(=O)NCCCN(C)CCCNc5nccc6c(C)c7[nH]c8ccc(OC)cc8c7c(C)c56)c4c(C)c3c2c1	0.236 µM (active)	0.147 µM (active)	0.753 µM (active)	0.569 µM (active)	0.352 µM (active)	0.402 µM (active)	0.226 µM (active)	0.348 µM (active)	0.419 µM (active)	0.23 µM (active)	0.233 µM (active)	0.881 µM (active)	0.314 µM (active)	1.33 µM (inactive)	0.476 µM (active)	0.102 µM (active)	0.369 µM (active)		0.406 µM (active)	0.164 µM (active)
Nc1ccc(C(=O)N/C(=C\c2cccc([N+](=O)[O-])c2)c2nc3c4c(ccc3[nH]2)C(=O)c2ccccc2C4=O)cc1	3.94 µM (inactive)		> 100 µM (inactive)	> 100 µM (inactive)		1.76 µM (inactive)	4.41 µM (inactive)	21.3 µM (inactive)	> 100 µM (inactive)	56 µM (inactive)	17.7 µM (inactive)	1.86 µM (inactive)	13.8 µM (inactive)	53.3 µM (inactive)	8.39 µM (inactive)		10.1 µM (inactive)	27.5 µM (inactive)	29.4 µM (inactive)	
Cn1cnc([N+](=O)[O-])c1Sc1nc2cccnc2[nH]1	29.9 µM (inactive)	12.5 µM (inactive)	> 100 µM (inactive)	> 100 µM (inactive)	> 100 µM (inactive)	> 100 µM (inactive)		> 100 µM (inactive)	> 100 µM (inactive)	22.8 µM (inactive)	> 100 µM (inactive)	89.7 µM (inactive)	> 100 µM (inactive)	67.6 µM (inactive)	71.4 µM (inactive)	35.9 µM (inactive)	97.5 µM (inactive)	1.61 µM (inactive)	83 µM (inactive)	
